Source: patent publication US5180739A, “Use of 3-oxygermylpropionic acid to treat and prevent diabetes-dependent type of autoimmune diseases” (Sanwa Kagaku Kenkyusho Co., Ltd., priority 1990, dated 1993)

Columns and labels:
mice = assay: Acute toxicity test, oral administration (LD50), mice; type: in vivo
Procedure: (§1) Acute and subacute (chronic) toxicity tests were performed using SD rats and mice which has received 3-oxygermylpropionic acid represented by Formula I (hereinafter referred to Compound a) and the above-mentioned primary composition (hereinafter called Composition b).
(§2) For experimentation, a group of 8-10 animals were used.
(§3) Oral administration (no significant
(§4) difference between Compound -a and […]

SD rats = assay: Acute toxicity test, oral administration (LD50), rats; type: in vivo
Procedure: as §1, §2, §3, §4

SD rats and mice = assay: Acute toxicity test, comparison and general symptoms; type: in vivo
Procedure: as §1, §2

SD male rats = assay: Subacute toxicity test, oral, over 3 months; type: in vivo
Procedure: as §1, §2
Over 3 months, Compound a and Composition b were orally administered to two groups of SD male rats at doses of 256, 380, 640, 1300, 1600 and 4000 mg/kg/day to determined which dose to have no toxic influence at all and which dose to induce positive poisoning.

[1] = system: mice with streptozosin-induced diabetes; assay: Concentration of glucose in the blood of mice with STZ-induced diabetes; type: in vivo, AKR/J1 mouse; conditions: rejection rate of 5%
Procedure: (§5) Continuous 5-day administration of streptozocin (STZ) to an AKR/J1 line mice, that ia an inbred mice with a spontaneous symptom of leukemia, can cause it to take a disease similar to human Type I diabetes (dependent upon insulin). Tests were performed for the purpose of going into influence Compound a and Composition b have on such a mice with streptozosin-induced diabetes.
(§6) Streptozocin (STZ) was continuously administrated to the abdominal cavity of a (masculine) mouse belonging to AKR/J1 at a dose of 40 mg/kg for 5 days to induce an increase in the concentration of glucose in the blood and a decrease in the amount of insulin in the pancreas.
(§7) With Compound a dissolved in a phosphate buffer solution with pH 7.4, the concentration of glucose in the blood was measured at 7 days, 14 days and 21 days from STZ dosing, using a GOD-PAP kit (made by Boehringer Mannheim) based on the glucose oxidase process for measurement. In addition, the amount of insulin in the pancreas, extracted by the acid-ethanol process, was assayed with a radio immuno assay kit (made by Pharmacia Aktiebolag) based on an immunoassay process making use of a competitive reaction by ^125 I-labeled insulin (see Soeldner, JS & Slone, D, "Diabetes", Vol. 14, pp. 771-779, 1985).
(§8) A similar mouse was caused to develop STZ-induced diabetes in a similar manner as referred to in Test Example 1.
(§9) A solution of Compound a in a phosphate buffer with pH 7.4 was continuously administered to the abdominal cavity of the animal at 5 mg/kg over 7 days from STZ dosing.
(§10) At 7 days, 14 days and 21 days from STZ dosing, the concentration of glucose in the blood and the amount of insulin in the pancreas were measured in similar manners as mentioned in Test Example 1.
(§11) A solution of Compound a in a phosphate buffer with pH 7.4 was continuously administered to the abdominal cavity of the animal at 5 mg/kg 15 days from the 7th day after STZ dosing.

[2] = system: mice with streptozosin-induced diabetes; assay: Amount of insulin in the pancreas of mice with STZ-induced diabetes; type: in vivo, AKR/J1 mouse; conditions: rejection rate of 5%
Procedure: as §5, §6, §7, §8, §9, §10, §11

Langerhans' islands = assay: Degree of cellular infiltration in the Langerhans' islands of mice with STZ-induced diabetes; type: in vivo, AKR/J1 mouse; conditions: for Degrees of pancreatitis, 0 (0%) / Degrees of pancreatitis, I (0-25%) / Degrees of pancreatitis, II (25-50%) / Degrees of pancreatitis, III (50-100%) / Incidence of pancreatitis (I-III): STZ + a, at 21 days; for Incidence of pancreatitis (I-III): STZ + buffer 68
Procedure: as §5
Similar mice were caused to develop STZ-induced diabetes in a similar manner as described in Test Example 1.
A solution of Compound a in a similar phosphate buffer with pH 7.4 as used in Test Example 1 was continuously administrated at a rejection rate of 5% to the abdominal cavities according to similar dosing schemes as applied in Test Examples 1, 2 and 3.
At 21 days from STZ dosing, the degree of cellular infiltration in the Langerhans' islands were assayed under an optical microscope.

[3] = Japanese Patent Kokai Publication No. Sho 61-161123; cited from earlier work

Which results are given for 3-oxygermylpropionic acid [Compound a]?
LD50 (mice; female): ≥ 5,800 mg/kg; LD50 (mice; male): ≥ 5,600 mg/kg; LD50 (SD rats; female): ≥ 7,050 mg/kg; LD50 (SD rats; male): ≥ 7,700 mg/kg; general symptoms (SD rats and mice; in vivo): general symptoms of appeasement, diarrhea, vomiting and typhlectasis; difference in acute toxicity between Compound a and Composition b (SD rats and mice; oral, mice and rats): no significant difference; dose inducing positive poisoning (SD male rats; SD male rats, oral, 3 months, daily): 1600 mg/kg; reversibility of toxic symptoms without drug treatment (SD male rats; rat, in vivo): Toxic symptoms then disappeared; dose with no toxic influence whatsoever (SD male rats; rat, in vivo, po, 131400 min): 256 mg/kg; concentration of glucose in the blood (increased by STZ) ([1]; Test Example 1, 21 days from dosing, FIG. 1(a)): significant improvements; concentration of glucose in the blood (increased by STZ) ([1]; Test Example 2, 5 mg/kg to the abdominal cavity over 7 days from STZ dosing, 21 days from dosing, FIG. 2(a)): significant improvements; concentration of glucose in the blood (increased by STZ) ([1]; Test Example 3, 5 mg/kg to the abdominal cavity 15 days from the 7th day after STZ dosing, 21 days from dosing, FIG. 3(a)): significant improvements; amount of insulin in the pancreas (decreased by STZ) ([2]; Test Example 1, 21 days from dosing, FIG. 1(b)): significant improvements; amount of insulin in the pancreas (decreased by STZ) ([2]; Test Example 2, 5 mg/kg to the abdominal cavity over 7 days from STZ dosing, 21 days from dosing, FIG. 2(b)): significant improvements; amount of insulin in the pancreas (decreased by STZ) ([2]; Test Example 3, 5 mg/kg to the abdominal cavity 15 days from the 7th day after STZ dosing, 21 days from dosing): significant improvements; Degrees of pancreatitis, 0 (0%) (Langerhans' islands; 1-7 days): 70%; Degrees of pancreatitis, I (0-25%) (Langerhans' islands; 1-7 days): 23%; Degrees of pancreatitis, II (25-50%) (Langerhans' islands; 1-7 days): 4%; Degrees of pancreatitis, III (50-100%) (Langerhans' islands; 1-7 days): 3%; Incidence of pancreatitis (I-III) (Langerhans' islands; 1-7 days): 30%; Degrees of pancreatitis, 0 (0%) (Langerhans' islands; 1-21 days (first line)): 70%; Degrees of pancreatitis, I (0-25%) (Langerhans' islands; 1-21 days (first line)): 25%; Degrees of pancreatitis, II (25-50%) (Langerhans' islands; 1-21 days (first line)): 4%; Degrees of pancreatitis, III (50-100%) (Langerhans' islands; 1-21 days (first line)): 1%; Incidence of pancreatitis (I-III) (Langerhans' islands; 1-21 days (first line)): 30%; Degrees of pancreatitis, 0 (0%) (Langerhans' islands; third line, 1-21 days): 68%; Degrees of pancreatitis, I (0-25%) (Langerhans' islands; third line, 1-21 days): 30%; Degrees of pancreatitis, II (25-50%) (Langerhans' islands; third line, 1-21 days): 1%; Degrees of pancreatitis, III (50-100%) (Langerhans' islands; third line, 1-21 days): 1%; Incidence of pancreatitis (I-III) (Langerhans' islands; third line, 1-21 days): 32%; infiltrated cells in the Langerhans' islands (increased by STZ dosing) (Langerhans' islands; Test Example 4, 21 days from dosing): successfully decreased the infiltrated cells; immunity-accommodative actions [3]: immunity-accommodative actions
